Values after ≈ are worked out from the molar mass of the structure shown.
Assays:
[1] = Thermodynamic equilibrium aqueous solubility in pH 1 solution at 1 mg/ml after 15 to 24 hrs by UV-HPLC method; type: physicochemical; settings: aqueous pH 1 solution, read-out: Therm_solubility
[2] = system: Rattus norvegicus; assay: (§1) AUC (0 to 24 hrs) in Sprague-Dawley rat at 10 mg/kg, po by LC-MS/MS analysis; type: ADME, organism-based; design: dose 10 mg/kg, time < 24 hr, route oral; settings: in vivo, 24 h, BLD = below limit of detection
[3] = system: Rattus norvegicus; assay: (§2) Cmax in Sprague-Dawley rat at 10 mg/kg, po by LC-MS/MS analysis; type: ADME, organism-based; design: dose 10 mg/kg, route oral; settings: in vivo, BLD = below limit of detection
[4] = system: Plasma; assay: Prodrug activation in Sprague-Dawley rat assessed as BMS-665053 level in plasma at 10 mg/kg, po by LC-MS/MS analysis; type: organism-based; settings: in vivo
[5] = Thermodynamic equilibrium aqueous solubility in pH 6.5 solution at 1 mg/ml after 15 to 24 hrs by UV-HPLC method; type: physicochemical; settings: for solubility thermodynamic: aqueous pH 6.5 solution, read-out: Therm_solubility
[6] = target: T1, Alkaline phosphatase, tissue-nonspecific isozyme (Homo sapiens, UniProt P05186); assay: Drug metabolism treated with 2,2-Dimethyl-3-(phosphonooxy)propyl (S)-(6-chloro-4-(1-cyclopropylethyl)-3-oxo-3,4-dihydropyrazin-2-yl)(2,6-dichloro-4-(difluoromethoxy)phenyl)carbamate, disodium salt assessed as alkaline phosphatase (unknown origin)-mediated compound conversion after 120 mins by LC-MS analysis; type: ADME; settings: 2 h
T1 sequence (P05186 whole entry): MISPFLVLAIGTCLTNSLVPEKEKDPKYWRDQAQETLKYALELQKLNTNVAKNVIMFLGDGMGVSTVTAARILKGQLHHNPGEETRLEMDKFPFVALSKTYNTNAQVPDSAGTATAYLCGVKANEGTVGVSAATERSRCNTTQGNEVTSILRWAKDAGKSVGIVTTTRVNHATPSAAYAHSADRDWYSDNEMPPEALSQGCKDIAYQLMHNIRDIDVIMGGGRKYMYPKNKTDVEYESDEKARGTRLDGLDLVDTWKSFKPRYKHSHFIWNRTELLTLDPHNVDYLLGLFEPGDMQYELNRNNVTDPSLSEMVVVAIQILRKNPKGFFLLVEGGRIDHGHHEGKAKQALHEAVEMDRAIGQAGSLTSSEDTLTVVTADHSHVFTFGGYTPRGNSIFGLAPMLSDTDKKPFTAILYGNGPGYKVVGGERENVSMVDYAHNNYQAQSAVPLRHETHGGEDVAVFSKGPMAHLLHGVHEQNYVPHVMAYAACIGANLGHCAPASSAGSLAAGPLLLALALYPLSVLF

[7] = target: T1, Alkaline phosphatase, tissue-nonspecific isozyme; assay: Drug metabolism treated with 3-(Phosphonooxy)propyl (S)-(6-chloro-4-(1-cyclopropylethyl)-3-oxo-3,4-dihydropyrazin-2-yl)(2,6-dichloro-4-(difluoromethoxy)phenyl)carbamate, disodium salt assessed as alkaline phosphatase (unknown origin)-mediated compound conversion after 120 mins by LC-MS analysis; type: ADME; settings: 2 h
[8] = as §1; type: ADME, organism-based; design: dose 10 mg/kg, time < 24 hr, route oral; settings: Sprague-Dawley, in vivo
[9] = as §2; type: ADME, organism-based; design: dose 10 mg/kg, route oral; settings: Sprague-Dawley, in vivo
[10] = Oral bioavailability in Sprague-Dawley rat at 10 mg/kg by LC-MS/MS analysis; type: ADME, organism-based; settings: in vivo
[11] = Stability in pH 1 buffer after 8 hrs by HPLC method; type: physicochemical; settings: pH 1, 8 h
[12] = Stability in pH 7 buffer after 8 hrs by HPLC method; type: physicochemical; settings: pH 7, 8 h
[13] = Prodrug activation in pH 7 buffer assessed as BMS-665053 formation after 10 mins by HPLC method
[14] = Stability in pH 1 buffer by HPLC method; type: physicochemical

| solubility thermodynamic [1] [µg/mL] | Drug metabolism [4] | solubility thermodynamic [5] [µg/mL] | AUC(0-t) at 24 h [8] [µM·h] | Cmax [9] [nM] | bioavailability [10] [%] | Structure (SMILES) | further results |
| --- | --- | --- | --- | --- | --- | --- | --- |
| 50 | Metabolite_Notdetected | > 1500 | – | – | – | C[C@@H](C1CC1)n1cc(Cl)nc(N(C(=O)OCC(C)(C)COP(=O)([O-])[O-])c2c(Cl)cc(OC(F)F)cc2Cl)c1=O.[Na+].[Na+] | AUC [2]: Bld; Cmax [3]: Bld |
| – | – | – | – | – | – | C[C@@H](C1CC1)n1cc(Cl)nc(N(C(=O)OCCCO)c2c(Cl)cc(OC(F)F)cc2Cl)c1=O | Drug metabolism [6]: Metabolite_Detected; Drug metabolism [7]: Metabolite_Detected |
| 1350 | – | 30 | 6.32 | 490 | 27 | C[C@@H](C1CC1)n1cc(Cl)nc(N(C(=O)OCOC(=O)CCN)c2c(Cl)cc(OC(F)F)cc2Cl)c1=O.Cl | – |
| 370 | – | 5 | 8.25 | 730 | 36 | C[C@H](N)C(=O)OCOC(=O)N(c1c(Cl)cc(OC(F)F)cc1Cl)c1nc(Cl)cn([C@@H](C)C2CC2)c1=O.Cl | – |
| – | – | – | 5.99 | 2150 | 25 | C[C@@H](C1CC1)n1cc(Cl)nc(N(COP(=O)([O-])[O-])c2c(Cl)cc(OC(F)F)cc2Cl)c1=O.[Na+].[Na+] | – |
| 1820 | – | 10 | 7.37 | 740 | 32 | CC(C)[C@H](N)C(=O)OCOC(=O)N(c1c(Cl)cc(OC(F)F)cc1Cl)c1nc(Cl)cn([C@@H](C)C2CC2)c1=O.Cl | – |
| 4 | – | 1500 | 4.23 | 295 | 18 | C[C@@H](C1CC1)n1cc(Cl)nc(N(C(=O)OCCCOP(=O)([O-])[O-])c2c(Cl)cc(OC(F)F)cc2Cl)c1=O.[Na+].[Na+] | Stability [11]: Stable; Stability [12]: Stable |
| 7 (≈ 16.5 µM) | – | < 1 | 1.26 | – | – | C[C@@H](C1CC1)n1cc(Cl)nc(Nc2c(Cl)cc(OC(F)F)cc2Cl)c1=O | – |
| 338 (≈ 584 µM) | 23 %ID | – | 3.99 | 460 | 17 | C[C@@H](C1CC1)n1cc(Cl)nc(N(C(=O)OCOP(=O)(O)O)c2c(Cl)cc(OC(F)F)cc2Cl)c1=O | Drug metabolism [13]: Metabolite detected; Stability [14]: Stable; Therm_solubility ([5]; buffer): Nd(Unstable) |
| 1720 (≈ 2950 µM) | Metabolite_Notdetected | 530 (≈ 908 µM) | – | – | – | C[C@@H](C1CC1)n1cc(Cl)nc(N(C(=O)OCOC(=O)CN(C)C)c2c(Cl)cc(OC(F)F)cc2Cl)c1=O | AUC [2]: Bld; Cmax [3]: Bld |

From ChEMBL document CHEMBL3997831, “Synthesis and evaluation of prodrugs of corticotropin-releasing factor-1 (CRF1) receptor antagonist BMS-665053 leading to improved oral bioavailability” (Bioorg Med Chem Lett, 2017)
